Here are results for one compound from patent US12195476B2, “Synthesis method of furoimidazopyridine compound, crystal form of furoimidazopyridine compound, and crystal form of salt thereof” (HANGZHOU HIGHLIGHTLL PHARMACEUTICAL CO., LTD, priority 2019, dated 2025).

Molecules are shown by their SMILES.

For one experiment, the target named is T1, TYK2 (Homo sapiens, UniProt P29597).
T1 construct: purchased Reaction Biology Corp, Malvern, PA (contract test)
Briefly: TYK2 biochemical test (33P-ATP filter binding kinase assay, Reaction Biology Corp). The conditions noted are these: 2 hours at room temperature. The procedure: An appropriate amount of a compound of formula I was weighed for TYK2 biochemical test.
The test was conducted by Reaction Biology Corp, Malvern, PA (Anastassiadis et al. Nat Biotechnol. 2011; 29(11):1039-45). The step is briefly described as follows.
Basic reaction buffer: 20 mM Hepes (pH 7.5), 10 mM MgCl2, 1 mM EGTA, 0.02% Brij35, 0.02 mg/ml BSA, 0.1 mM Na3VO4, 2 mM DTT and 1% DMSO. The required cofactor was added to each kinase reaction respectively.
• 1. Preparing the designated substrate in the newly prepared basic reaction buffer; • 2. Transferring the required cofactor to the above matrix solution; • 3. Transferring the designated kinase to the substrate solution and mixing well slightly; • 4. Transferring a compound of formula I in DMSO to the kinase reaction mixture with Acoustic technique (Echo550; nanoliter range), culturing for 20 minutes at room temperature; • 5. Introducing ^33P-ATP (specific activity: 10 μCi/μl) to the reaction mixture to trigger a reaction; • 6. Culturing at room temperature and conducting a kinase reaction for 2 hours; • 7. Plotting the reaction on P81 ion exchange paper; • 8. Testing the kinase activity with a filter binding assay.

For the next experiment, the target named is JAK1 (Homo sapiens, UniProt P23458). The conditions noted are these: result in words; cited from earlier work.
In experiment [1] the test system is thrombopoietin-induced STAT3 phosphorylation. The conditions noted are these: result in words; cited from earlier work.
The test system of experiment [2] is IL-6-induced STAT3 phosphorylation. The conditions noted are these: result in words; cited from earlier work.

As a reminder, the IC50 is the point on the concentration scale where inhibition reaches its midpoint.

T1 sequence (P29597 whole entry): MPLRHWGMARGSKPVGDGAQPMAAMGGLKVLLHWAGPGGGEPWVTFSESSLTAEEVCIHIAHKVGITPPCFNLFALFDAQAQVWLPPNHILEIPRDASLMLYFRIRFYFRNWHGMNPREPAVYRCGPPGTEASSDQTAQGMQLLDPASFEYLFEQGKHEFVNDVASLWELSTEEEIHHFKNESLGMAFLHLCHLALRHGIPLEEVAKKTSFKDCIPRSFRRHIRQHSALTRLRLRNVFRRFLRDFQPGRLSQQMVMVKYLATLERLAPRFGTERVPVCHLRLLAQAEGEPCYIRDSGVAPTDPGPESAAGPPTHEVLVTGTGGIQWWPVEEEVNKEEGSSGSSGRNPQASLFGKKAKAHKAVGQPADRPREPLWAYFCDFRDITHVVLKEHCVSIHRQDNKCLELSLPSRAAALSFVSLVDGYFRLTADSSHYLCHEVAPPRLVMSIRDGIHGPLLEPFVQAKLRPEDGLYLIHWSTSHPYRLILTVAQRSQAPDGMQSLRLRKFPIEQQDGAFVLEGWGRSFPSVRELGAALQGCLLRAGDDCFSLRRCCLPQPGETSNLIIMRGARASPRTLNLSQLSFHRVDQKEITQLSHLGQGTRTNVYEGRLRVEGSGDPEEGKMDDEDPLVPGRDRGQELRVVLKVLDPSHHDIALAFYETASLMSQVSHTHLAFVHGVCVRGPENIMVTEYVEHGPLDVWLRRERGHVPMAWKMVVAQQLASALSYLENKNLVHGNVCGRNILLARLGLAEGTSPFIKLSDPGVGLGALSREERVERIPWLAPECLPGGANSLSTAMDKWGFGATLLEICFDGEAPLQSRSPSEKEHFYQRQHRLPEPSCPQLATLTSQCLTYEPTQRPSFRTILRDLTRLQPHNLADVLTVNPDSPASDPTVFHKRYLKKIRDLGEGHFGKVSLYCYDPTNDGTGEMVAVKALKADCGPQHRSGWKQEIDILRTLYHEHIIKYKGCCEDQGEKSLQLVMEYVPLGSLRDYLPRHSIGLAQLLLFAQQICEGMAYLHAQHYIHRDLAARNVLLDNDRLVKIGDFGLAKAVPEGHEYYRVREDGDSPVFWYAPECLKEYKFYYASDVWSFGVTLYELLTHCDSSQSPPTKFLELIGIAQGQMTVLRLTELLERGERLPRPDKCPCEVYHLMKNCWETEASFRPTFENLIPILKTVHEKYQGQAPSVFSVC
Chain of JAK1 (P23458 whole entry): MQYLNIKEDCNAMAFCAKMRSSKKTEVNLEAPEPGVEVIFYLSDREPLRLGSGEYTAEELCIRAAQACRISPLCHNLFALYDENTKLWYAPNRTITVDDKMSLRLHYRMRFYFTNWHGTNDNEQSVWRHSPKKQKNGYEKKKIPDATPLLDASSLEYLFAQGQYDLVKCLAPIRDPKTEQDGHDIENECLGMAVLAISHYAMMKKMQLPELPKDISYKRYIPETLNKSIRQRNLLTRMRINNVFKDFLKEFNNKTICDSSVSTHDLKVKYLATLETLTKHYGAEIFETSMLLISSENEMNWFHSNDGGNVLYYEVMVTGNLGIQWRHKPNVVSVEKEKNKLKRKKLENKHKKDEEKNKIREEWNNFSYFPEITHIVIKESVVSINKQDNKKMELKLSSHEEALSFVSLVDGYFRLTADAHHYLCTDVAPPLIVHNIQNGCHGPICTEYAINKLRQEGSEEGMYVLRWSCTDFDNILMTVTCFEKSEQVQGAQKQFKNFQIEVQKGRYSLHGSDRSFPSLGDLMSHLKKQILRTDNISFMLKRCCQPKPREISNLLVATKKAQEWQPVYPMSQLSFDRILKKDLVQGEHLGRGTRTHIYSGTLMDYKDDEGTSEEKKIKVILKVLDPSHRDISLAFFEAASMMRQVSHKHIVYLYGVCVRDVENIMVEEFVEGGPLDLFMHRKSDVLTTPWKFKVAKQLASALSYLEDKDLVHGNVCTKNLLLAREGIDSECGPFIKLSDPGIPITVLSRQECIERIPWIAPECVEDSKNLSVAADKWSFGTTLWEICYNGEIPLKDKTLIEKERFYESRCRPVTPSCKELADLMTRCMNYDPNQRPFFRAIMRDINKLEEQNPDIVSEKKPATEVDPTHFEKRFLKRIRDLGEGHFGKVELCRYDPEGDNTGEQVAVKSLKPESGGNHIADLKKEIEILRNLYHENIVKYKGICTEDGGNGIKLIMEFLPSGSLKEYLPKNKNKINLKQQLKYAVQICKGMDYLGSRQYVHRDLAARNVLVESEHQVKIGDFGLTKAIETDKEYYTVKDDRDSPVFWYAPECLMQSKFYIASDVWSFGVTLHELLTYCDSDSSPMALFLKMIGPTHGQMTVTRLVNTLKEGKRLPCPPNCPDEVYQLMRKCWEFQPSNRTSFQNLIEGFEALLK

Regarding `C[C@@H](O)c1nc2cnc3ccoc3c2n1[C@H]1CC[C@H](CC#N)OC1` [compound I, 2-[(2R,5S)-5-[2-[(R)-1-hydroxyethyl]furo[3,2-b]imidazo[4,5-d]pyridin-1-yl]tetrahydropyran-2-yl]acetonitrile], the IC50 on TYK2 was < 10 nM. In addition, the JAK1 inhibition result at JAK1 is “potent and selective JAK1 inhibitor”. Also, the “inhibition of thrombopoietin-induced STAT3 phosphorylation” value in experiment [1] is listed as “did not show selective inhibition”. The “inhibition of IL-6-induced STAT3 phosphorylation” value in experiment [2] was “demonstrated selective inhibition”.
